Data as given in patent US8501783B2, “Conformationally restricted urea inhibitors of soluble epoxide hydrolase” (The Regents of the University of California, priority 2006, dated 2013).
“And” between values parts separate entries of the source, which are not always exact repeats. Equal entries are not always repeated. Where two headings read alike, the source gives them in different places. Each block holds one compound with its values, some of them ahead of it.

What was measured:
human sEH = human sEH (Homo sapiens (Human), UniProt P34913); assay: Inhibition of human soluble epoxide hydrolase (IC50; one of three substrate methods); assay type: biochemical;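 also: enzyme expressed in baculovirus and affinity-purified, assays run in triplicate, with substrate and read-out differing among the three methods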
[1] = Solubility in oil of the dosing preparation (compound in Crisco); assay type: physicochemical; settings: appearance in oil, in parentheses after compound number
Excerpt: The dogs are fed immediately thereafter.

[2] = Pharmacokinetic screening in dogs, oral administration, plasma LC-MS/MS; settings: for LC/MS analysis, plasma level at time 0 / LC/MS analysis, plasma level at time 15 / LC/MS analysis, plasma level at time 30 / LC/MS analysis, plasma level at time 60 / LC/MS analysis, plasma level at time 120 / LC/MS analysis, plasma level at time 180 / LC/MS analysis, plasma level at time 240 / LC/MS analysis, plasma level at time 300 / LC/MS analysis, plasma level at time 360 / LC/MS analysis, plasma level at time 480 / LC/MS analysis, plasma level at time 1440: single oral dose (0.3 mg/kg per FIG. 1); for AUC: dog, plasma, po; for AUCINF_D_pred: dose-normalised

human sEH, sequence (P34913 whole entry): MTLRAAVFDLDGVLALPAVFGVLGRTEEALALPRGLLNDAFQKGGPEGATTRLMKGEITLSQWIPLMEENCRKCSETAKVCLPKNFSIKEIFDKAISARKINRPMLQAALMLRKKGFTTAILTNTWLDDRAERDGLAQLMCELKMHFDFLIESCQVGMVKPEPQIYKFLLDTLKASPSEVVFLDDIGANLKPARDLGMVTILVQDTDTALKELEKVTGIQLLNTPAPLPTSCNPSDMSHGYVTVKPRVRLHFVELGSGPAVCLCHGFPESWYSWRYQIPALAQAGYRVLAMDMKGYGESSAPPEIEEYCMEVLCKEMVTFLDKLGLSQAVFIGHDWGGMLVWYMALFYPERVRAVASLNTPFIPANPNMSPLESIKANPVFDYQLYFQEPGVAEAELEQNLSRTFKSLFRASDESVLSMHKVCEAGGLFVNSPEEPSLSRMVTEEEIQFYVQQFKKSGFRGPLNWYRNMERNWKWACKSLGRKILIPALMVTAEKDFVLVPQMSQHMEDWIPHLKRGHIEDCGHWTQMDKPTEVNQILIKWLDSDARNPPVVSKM

Compound: O=C(NC1CCN(C(=O)c2ccccc2)CC1)NC12CC3CC(CC(C3)C1)C2 [Compound 1159, N-(1-benzoylpiperidin-4-yl)-N′-(adamant-1-yl)urea]
IC50 (human sEH; recombinant human sEH): 1.3 nM
solubility in oil [1]: 1159 (Opaque)
LC/MS analysis, plasma level at time 0 ([2]; dogs, time 0 min): 0.00
LC/MS analysis, plasma level at time 15 ([2]; dogs, time 15 min): 7.26
LC/MS analysis, plasma level at time 30 ([2]; dogs, time 30 min): 7.82
LC/MS analysis, plasma level at time 60 ([2]; dogs, time 60 min): 4.58
LC/MS analysis, plasma level at time 120 ([2]; dogs, time 120 min): 1.39
LC/MS analysis, plasma level at time 180 ([2]; dogs, time 180 min): 0.60
LC/MS analysis, plasma level at time 240 ([2]; dogs, time 240 min): 0.00
LC/MS analysis, plasma level at time 300 ([2]; dogs, time 300 min): 0.00
LC/MS analysis, plasma level at time 360 ([2]; dogs, time 360 min): 0.00
LC/MS analysis, plasma level at time 480 ([2]; dogs, time 480 min): 0.00
LC/MS analysis, plasma level at time 1440 ([2]; dogs, time 1440 min): 0.00

Compound: O=C(NC1CCN(C(=O)c2ccccn2)CC1)NC12CC3CC(CC(C3)C1)C2 [Compound 1201, N-(1-(Pyridine-2-carbonyl)piperidin-4-yl)-N′-(adamant-1-yl)urea]
IC50 (human sEH; recombinant human sEH): 1.2 nM
solubility in oil [1]: 1201 (Suspension)
AUC ([2]; 0.3 mg/kg): 0.08 µM·h
AUCINF_D_pred ([2]; dogs, oral): 16100 kg·nM·min/mg
LC/MS analysis, plasma level at time 0 ([2]; dogs, time 0 min): 0.00
LC/MS analysis, plasma level at time 15 ([2]; dogs, time 15 min): 9.19
LC/MS analysis, plasma level at time 30 ([2]; dogs, time 30 min): 32.65
LC/MS analysis, plasma level at time 60 ([2]; dogs, time 60 min): 42.48
LC/MS analysis, plasma level at time 120 ([2]; dogs, time 120 min): 21.09
LC/MS analysis, plasma level at time 180 ([2]; dogs, time 180 min): 7.15
LC/MS analysis, plasma level at time 240 ([2]; dogs, time 240 min): 3.16
LC/MS analysis, plasma level at time 300 ([2]; dogs, time 300 min): 1.72
LC/MS analysis, plasma level at time 360 ([2]; dogs, time 360 min): 0.00
LC/MS analysis, plasma level at time 480 ([2]; dogs, time 480 min): 0.00
LC/MS analysis, plasma level at time 1440 ([2]; dogs, time 1440 min): 0.00

Compound: CCCC(=O)N1CCC(NC(=O)NC23CC4CC(CC(C4)C2)C3)CC1 [Compound 1157, N-(1-butyrylpiperidin-4-yl)-N′-(adamant-1-yl)urea]
IC50 (human sEH): 2.6 nM and 2.64 nM
solubility in oil [1]: 1157 (Opaque)
AUC ([2]; 0.3 mg/kg): 0.0367 µM·h
AUCINF_D_pred ([2]; dogs, oral): 7187 kg·nM·min/mg
LC/MS analysis, plasma level at time 0 ([2]; dogs, time 0 min): 0.00
LC/MS analysis, plasma level at time 15 ([2]; dogs, time 15 min): 0.58
LC/MS analysis, plasma level at time 30 ([2]; dogs, time 30 min): 5.18
LC/MS analysis, plasma level at time 60 ([2]; dogs, time 60 min): 7.77
LC/MS analysis, plasma level at time 120 ([2]; dogs, time 120 min): 9.50
LC/MS analysis, plasma level at time 180 ([2]; dogs, time 180 min): 7.05
LC/MS analysis, plasma level at time 240 ([2]; dogs, time 240 min): 4.60
LC/MS analysis, plasma level at time 300 ([2]; dogs, time 300 min): 2.45
LC/MS analysis, plasma level at time 360 ([2]; dogs, time 360 min): 2.45
LC/MS analysis, plasma level at time 480 ([2]; dogs, time 480 min): 0.86
LC/MS analysis, plasma level at time 1440 ([2]; dogs, time 1440 min): 0.00

Compound: O=C(Nc1ccc(OC(F)(F)F)cc1)NC1CCN(C(=O)C(F)(F)F)CC1 [Compound 1591, 1-[1-(2,2,2-Trifluoro-acetyl)-piperidin-4-yl]-3-(4-trifluoromethoxy-phenyl)-urea]
IC50 (human sEH; recombinant human sEH): 0.4 nM

Further lines, results first:

solubility in oil [1]: 1153 (Opaque)
AUC ([2]; 0.3 mg/kg): 0.597 µM·h
plasma level, in solution at 0.1 mg/kg dose, time 0 ([2]; dogs, oral, 0.1 mg/kg, time 0 min): 0.31
plasma level, in solution at 0.1 mg/kg dose, time 15 ([2]; dogs, oral, 0.1 mg/kg, time 15 min): 5.33
plasma level, in solution at 0.1 mg/kg dose, time 30 ([2]; dogs, oral, 0.1 mg/kg, time 30 min): 19.59
plasma level, in solution at 0.1 mg/kg dose, time 60 ([2]; dogs, oral, 0.1 mg/kg, time 60 min): 56.74
plasma level, in solution at 0.1 mg/kg dose, time 120 ([2]; dogs, oral, 0.1 mg/kg, time 120 min): 106.43
plasma level, in solution at 0.1 mg/kg dose, time 180 ([2]; dogs, oral, 0.1 mg/kg, time 180 min): 100.94
plasma level, in solution at 0.1 mg/kg dose, time 240 ([2]; dogs, oral, 0.1 mg/kg, time 240 min): 75.71
plasma level, in solution at 0.1 mg/kg dose, time 300 ([2]; dogs, oral, 0.1 mg/kg, time 300 min): 44.51
plasma level, in solution at 0.1 mg/kg dose, time 360 ([2]; dogs, oral, 0.1 mg/kg, time 360 min): 29.15
plasma level, in solution at 0.1 mg/kg dose, time 480 ([2]; dogs, oral, 0.1 mg/kg, time 480 min): 13.01
plasma level, in solution at 0.1 mg/kg dose, time 1440 ([2]; dogs, oral, 0.1 mg/kg, time 1440 min): 0.00
plasma level, in solution at 0.3 mg/kg dose, time 0 ([2]; dogs, oral, 0.3 mg/kg, time 0 min): 0.00
plasma level, in solution at 0.3 mg/kg dose, time 15 ([2]; dogs, oral, 0.3 mg/kg, time 15 min): 288.97
plasma level, in solution at 0.3 mg/kg dose, time 30 ([2]; dogs, oral, 0.3 mg/kg, time 30 min): 276.16
plasma level, in solution at 0.3 mg/kg dose, time 60 ([2]; dogs, oral, 0.3 mg/kg, time 60 min): 241.03
plasma level, in solution at 0.3 mg/kg dose, time 120 ([2]; dogs, oral, 0.3 mg/kg, time 120 min): 107.19
plasma level, in solution at 0.3 mg/kg dose, time 180 ([2]; dogs, oral, 0.3 mg/kg, time 180 min): 56.41
plasma level, in solution at 0.3 mg/kg dose, time 240 ([2]; dogs, oral, 0.3 mg/kg, time 240 min): 26.42
plasma level, in solution at 0.3 mg/kg dose, time 300 ([2]; dogs, oral, 0.3 mg/kg, time 300 min): 20.81
plasma level, in solution at 0.3 mg/kg dose, time 360 ([2]; dogs, oral, 0.3 mg/kg, time 360 min): 10.10
plasma level, in solution at 0.3 mg/kg dose, time 480 ([2]; dogs, oral, 0.3 mg/kg, time 480 min): 4.66
plasma level, in solution at 0.3 mg/kg dose, time 1440 ([2]; dogs, oral, 0.3 mg/kg, time 1440 min): 0.00
AUCINF_D_pred ([2]; dogs, oral): 119214 kg·nM·min/mg
LC/MS analysis, plasma level at time 0 ([2]; dogs, time 0 min): 0.00
LC/MS analysis, plasma level at time 15 ([2]; dogs, time 15 min): 288.97
LC/MS analysis, plasma level at time 30 ([2]; dogs, time 30 min): 276.16
LC/MS analysis, plasma level at time 60 ([2]; dogs, time 60 min): 2411.03
LC/MS analysis, plasma level at time 120 ([2]; dogs, time 120 min): 107.19
LC/MS analysis, plasma level at time 180 ([2]; dogs, time 180 min): 56.41
LC/MS analysis, plasma level at time 240 ([2]; dogs, time 240 min): 26.42
LC/MS analysis, plasma level at time 300 ([2]; dogs, time 300 min): 20.81
LC/MS analysis, plasma level at time 360 ([2]; dogs, time 360 min): 10.10
LC/MS analysis, plasma level at time 480 ([2]; dogs, time 480 min): 4.66
LC/MS analysis, plasma level at time 1440 ([2]; dogs, time 1440 min): 0.00
Compound: CC(=O)N1CCC(NC(=O)NC23CC4CC(CC(C4)C2)C3)CC1 [Compound 1153, N-(1-acetylpiperidin-4-yl)-N′-(adamant-1-yl)urea]

IC50 (human sEH; recombinant human sEH): 275 nM
AUC ([2]; 0.3 mg/kg): 0.0967 µM·h
Compound: CC(=O)N1CCC(NC(=O)CC23CC4CC(CC(C4)C2)C3)CC1 [Compound 1642]

IC50 (human sEH; recombinant human sEH): 1.4 nM
AUC ([2]; 0.3 mg/kg): 0.0817 µM·h
Compound: CS(=O)(=O)N1CCC(NC(=O)NC23CC4CC(CC(C4)C2)C3)CC1 [Compound 1701, 1-Adamantan-1-yl-3-(1-methanesulfonyl-piperidin-4-yl)-urea]
